Reference: patent US20070015834A1 (priority 2005, published 2007)

Experiment: Small volume in vitro release test in 50 ml 0.1N HCl (model of fasted stomach)
Format: physicochemical
Conditions: 37° C., 150 rpm
Description: The formulations were tested for their small volume in vitro release characteristics in 50 ml 0.1N HCl at 37° C. and 150 rpm using the following procedure: III. Instrumentation (or Equivalent) a. Automated Dissolution System comprising of: Hanson SR8 Plus Test Station Hanson Auto Plus Maximiser System Controller Hanson Auto Plus MultiFill Fraction Collector b. HPLC System comprising of: pump—Merck Hitachi L-7100 autoinjector—Merck Hitachi L-7200 column oven—Merck Hitachi L-7300 detector—Merck Hitachi L-7400 interface and integration software—Merck Hitachi D-7000
0.1N HCl Preparation Dilute 8.5 ml HCl 37% to 1 liter with purified water. Procedure Place one weighed capsule in each vessel containing 0.1N HCl and immediately operate the apparatus for 30 min. Unless otherwise specified, 3 ml samples are withdrawn from each vessel and immediately filtered through PTFE membranes at 15 and 30 min.
The small volume was chosen as a model of the conditions in a fasted stomach.

dissolution in 50 ml 0.1N HCl (in words): no dissolution at all | % dissolved 15 min (15 min): 0% | % dissolved 30 min (30 min): 0%
SMILES: CC(C)OC(=O)C(C)(C)Oc1ccc(C(=O)c2ccc(Cl)cc2)cc1 [Micronized Fenofibrate]
